# Laboratory results: PMC11279160 (Microorganisms, 2024)
# Where two headings read alike, the source gives them in different places.
# Columns and labels:
# [1] = Cytotoxicity on VERO cells, MTT assay, 72 h; conditions: African green monkey, VERO CCL 81 cells
# Method: (§3) Murine J774A.1 lineage macrophages and VERO CCL 81 cells were grown in 750 cm^2 cell culture flasks (Corning Glass Workers, New York, NY, USA) containing complete RPMI medium (10% SFB and 1% stabilized anti-mycotic–antibiotic solution), incubated at 37 °C and 5% CO2. The cells were observed on all days and replicates were always conducted after the cells reached confluence, around 72 to 96 h [22].
# (§4) The cytotoxicity assay was performed in 96-well plates using MTT for cell viability observation. Plates containing 100 μL of complete RPMI medium and approximately 5 × 10^5 J774A.1 macrophages or VERO CCL 81 cells were incubated for 4 h at 37 °C and 5% CO2 for cell adhesion to occur. […] As a positive control, the reference drugs meglumine antimoniate (200–40,000 µM) and amphotericin B (0.031–2 µM) were used, and as a negative control, complete RPMI 1640 medium at 0.5% DMSO was used (considering 100% cell viability). After 72 h of incubation at 37 °C and 5% CO2, 10 μL of MTT was added and incubated for another 4 h at room temperature. The medium was then removed, and 100 μL of DMSO was added to dilute the formazan crystals created by the MTT [23]. Finally, the plate was taken to be read at 540 nm in a (Biotek model Elx800) spectrophotometer.
# [2] = Cytotoxicity on macrophages, MTT assay, 72 h; conditions: mouse
# Method: as §3, §4
# [3] = tested on: L. (L.) amazonensis axenic amastigotes; assay: Growth inhibition of axenic amastigotes, MTT assay, 72 h; assay type: cell-based, Leishmania (Leishmania) amazonensis; conditions: for EC50: read-out: Axenic Amastigotes EC50
# Method: (§1) The species Leishmania (Leishmania) amazonensis (IFLA/BR/67/PH8) was maintained in promastigote form at a temperature of 26 °C in a biochemical oxygen demand incubator (BOD) (Eletrolab EL202, São Paulo, Brazil) and in complete Schneider medium (20% heat-inactivated fetal bovine serum (FBS), and 1% antibiotic solution). The L. (L.) amazonensis axenic amastigote forms were obtained through the differentiation of infective promastigote forms using Schneider medium supplemented with 5% FBS, pH 4.6, at a temperature of 32 °C. Parasite growth was observed daily and, if necessary, weekly repeats were performed.
# (§2) Promastigote forms or axenic amastigotes in an exponential growth phase were cultured in 96-well plates with complete Schneider’s medium, at 1 × 10^6 parasites/mL. […] The plates were incubated for 72 h under a BOD at 26 °C to prepare promastigotes and 32 °C to prepare amastigotes. When ready, 10 μL of MTT (5 mg/mL) was added to all wells (with the exception of the blank) with an incubation for 4 h. Subsequently, 50 μL of SDS solution (dodecyl sodium sulfate) at 10% was added to dissolve the formazan crystals, and a spectrophotometric reading was then performed (Biotek model ELx800, Winooski, VT, USA) at 540 nm. Schneider medium with 0.5% DMSO was used, considering a 0% growth inhibition for the negative control.
# [4] = tested on: L. (L.) amazonensis-infected J774A.1 macrophages; assay: Cytokine production in infected macrophages, ELISA; assay type: cell-based, murine; conditions: 72 h
# Method: According to Rodrigues et al., 2021 [27], to carry out cytokine evaluation, the supernatant saved after the J774A.1 macrophage infection assay was used to evaluate cytokine production. Analysis kits (optEIATM ELISA, Pharmingen, San Diego, CA, USA) were used following the manufacturer’s protocol to examine the release of cytokines (TNF-α, IL-1α, IL-6, IL-10, and IL-12), and standard recombinant cytokines were used to produce a curve. The reading was performed in a spectrophotometer at 450 nm.
# [5] = tested on: L. (L.) amazonensis promastigotes; assay: Growth inhibition of promastigotes, MTT assay, 72 h; assay type: cell-based; conditions: Leishmania amazonensis; for IC50: read-out: Promastigotes IC50
# Method: as §1, §2
# [6] = tested on: J774A.1 macrophages; assay: Phagocytic capacity, neutral-red-stained zymosan; assay type: cell-based, murine; conditions: 12.5 μM, 6.25 μM and 3.12 μM, 72 h, compared to negative control
# Method: At 72 h, 10 μL of VN-stained zymosan was added and then incubated for 30 min. […] To remove what was not phagocytized by the macrophages, the plate was washed with PBS. The plate extraction solution was added, and then solubilization was performed in a Kline shaker. The board was taken for reading on a spectrophotometer at 540 nm.
# [7] = tested on: J774A.1 macrophages infected with L. (L.) amazonensis; assay: ROS production in infected macrophages, H2DCFDA test; assay type: cell-based, murine; conditions: 3.12 μM, 6.25 μM and 12.5 μM, 72 h, compared to negative control
# Method: Macrophages were incubated in 96-well plates with complete RPMI medium for 3 h at 37 °C, and 5% CO2 for adherence. These were then infected with L. […] Then 10 μL of H2DCFDA was added for a final concentration of 20 μM and incubated for 30 min in the dark at 37 °C. A spectrofluorometer (FLx800) was used to read the fluorescence intensity, using 485 nm of excitation and 528 nm of emission. Antimycin A (5 μM) was used as the positive control for ROS generation.
# [8] = tested on: L. (L.) amazonensis intracellular amastigotes; assay: Activity against intramacrophageal amastigotes in infected J774A.1 macrophages; assay type: cell-based, Leishmania (Leishmania) amazonensis; conditions: for reduction in macrophage infection rate / reduction in the number of internalized amastigotes per infected macrophage: compared to negative control; for EC50: read-out: Intracellular Amastigotes EC50
# Method: Macrophages were added to 24-well culture plates containing complete RPMI medium and sterile 13 mm coverslips, 1 × 10^5 J774A.1, and for cell adhesion incubated at 37 °C and 5% CO2 for 3 h. The medium was then removed, and three washes with PBS at 37 °C to remove non-adherent cells were performed. New medium, together with metacyclic promastigote forms in a proportion of 10 promastigotes/macrophage, was then added to the wells for infection and then incubated for another 4 h at 37 °C and 5% of CO2. The medium was then removed again and the plate washed with PBS to remove non-internalized […]. […] Subsequently, the coverslips were removed, stained with a quick panoptic kit, and mounted with Entelan®. In each coverslip, 300 macrophages were counted, together with the number of internalized amastigotes through optical microscopy at 1000× magnification. For the negative control, complete RPMI medium with 0.5% DMSO was used. At the end of the macrophage infection assay, the supernatant was stored at −20 °C for the subsequent evaluation of NO production.
# [9] = tested on: J774A.1 macrophages; assay: Lysosomal activity, neutral red retention; assay type: cell-based, murine; conditions: 12.5 μM, 6.25 μM and 3.12 μM, 72 h, relative to negative control
# Method: After this, 10 μL of PBS and 2% red neutral (VN) were added, with incubation in an incubator for another 30 min. Soon afterwards, the supernatant was aspirated and the plates washed 3× with PBS to remove excess VN. […] Finally, the plates were placed under agitation in a Kline apparatus for 30 min, and then read in a spectrophotometer at 540 nm.
# [10] = tested on: J774A.1 macrophages infected with L. (L.) amazonensis; assay: Nitric oxide production by infected macrophages, Griess reagent; assay type: cell-based, murine; conditions: 3.12 μM, 6.25 μM and 12.5 μM, 72 h, compared to negative control
# Method: The measurement of NO production (using macrophage infection supernatant) was performed by the production of nitrite with Griess reagent. About 100 µL of infection supernatant was added to a 96-well plate. In parallel, serial concentrations of NaNO2 in RPMI medium were also added to the plate for interpolation of the standard curve. Griess reagent (1% Sulfanilamide in 10% (v/v) H3PO4 in Milli-Q® water and in equal parts to 0.1% naphthylenediamine in Milli-Q® water Q®) was then added and incubated for 10 min at room temperature. At the end of the incubation, a reading was conducted on a plate reader at 540 nm. The positive control was performed with Escherichia coli lipopolysaccharide at 2 μg/mL.
# [11] = tested on: amastigotes of L. (L.) amazonensis; conditions: cited from earlier work
# [12] = tested on: promastigotes of L. (L.) amazonensis; conditions: cited from earlier work
# [13] = in vitro; conditions: African green monkey
# Method: as §3, §4
# [14] = in vitro; conditions: mouse
# Method: as §3, §4
# [15] = Leishmania amazonensis, read-out: growth inhibition of axenic amastigote forms
# [16] = read-out: growth inhibition of promastigote forms
compound,measurement,setting,value
"CC1(C)C=C2[C@H]3CC[C@@H]4[C@@]5(C)CC[C@H](O)C(C)(C)[C@@H]5CC[C@@]4(C)[C@]3(C)CC[C@@]2(C(=O)O)CC1 [Morolic acid, morolic acid]",CC50 at 72 h,[1],82.9 ± 1.84 µM
same,"viability at 72 h, 1.56 µM",[1],100%
same,"viability at 72 h, 3.12 µM",[1],100%
same,"viability at 72 h, 6.25 µM",[1],93.2%
same,"viability at 72 h, 12.5 µM",[1],88.8%
same,"viability at 72 h, 25 µM",[1],79.4%
same,"viability at 72 h, 50 µM",[1],71.2%
same,"viability at 72 h, 100 µM",[1],38.8%
same,"viability at 72 h, 200 µM",[1],24.3%
same,CC50 at 72 h,[2],68.6 ± 2.46 µM
same,"viability at 72 h, 1.56 µM",[2]; J774A.1 macrophages,100%
same,"viability at 72 h, 3.12 µM",[2]; J774A.1 macrophages,100%
same,"viability at 72 h, 6.25 µM",[2]; J774A.1 macrophages,100%
same,"viability at 72 h, 12.5 µM",[2]; J774A.1 macrophages,100%
same,"viability at 72 h, 25 µM",[2]; J774A.1 macrophages,100%
same,"viability at 72 h, 50 µM",[2]; J774A.1 macrophages,65%
same,"viability at 72 h, 100 µM",[2]; J774A.1 macrophages,15%
same,"viability at 72 h, 200 µM",[2]; J774A.1 macrophages,0%
same,EC50,[3]; Leishmania amazonensis,2.74 ± 0.03 µM
same,inhibition at 1.56 µM,[3]; [15],34.1%
same,inhibition at 3.12 µM,[3]; [15],68.6%
same,inhibition at 6.25 µM,[3]; [15],76.4%
same,inhibition at 12.5 µM,[3]; [15],100%
same,inhibition at 25 µM,[3]; [15],100%
same,inhibition at 50 µM,[3]; [15],100%
same,inhibition at 100 µM,[3]; [15],100%
same,IL-1α levels,[4],no effect
same,IL-12 levels,[4],no effect
same,production of TNF-α,[4]; at the higher concentration,significant increase
same,IL-6 levels,[4]; at the highest concentrations,significant reduction
same,IL-10 levels,[4]; at the highest concentrations,significant reduction
same,IC50,[5],1.13 ± 0.04 µM
same,inhibition at 1.56 µM,[5]; [16],57.6%
same,inhibition at 3.12 µM,[5]; [16],57.9%
same,inhibition at 6.25 µM,[5]; [16],83.3%
same,inhibition at 12.5 µM,[5]; [16],100%
same,inhibition at 25 µM,[5]; [16],100%
same,inhibition at 50 µM,[5]; [16],100%
same,inhibition at 100 µM,[5]; [16],100%
same,phagocytic capacity for zymosan,[6],significant increase
same,levels of ROS produced in infected macrophages,[7],increase
same,reduction in macrophage infection rate,"[8]; 1.56 μM, 72 h",34%
same,reduction in the number of internalized amastigotes per infected macrophage,"[8]; 1.56 μM, 72 h",59.1%
same,reduction in macrophage infection rate,"[8]; 3.12 μM, 72 h",77.5%
same,reduction in the number of internalized amastigotes per infected macrophage,"[8]; 3.12 μM, 72 h",71.6%
same,reduction in macrophage infection rate,"[8]; 6.25 μM, 72 h",93%
same,reduction in the number of internalized amastigotes per infected macrophage,"[8]; 6.25 μM, 72 h",86.8%
same,reduction in macrophage infection rate,"[8]; 12.5 μM, 72 h",100%
same,reduction in the number of internalized amastigotes per infected macrophage,"[8]; 12.5 μM, 72 h",100%
same,EC50,"[8]; Leishmania amazonensis, J774.A1, 72 h",2.56 ± 0.08 µM
same,lysosomal activity,[9],increased
same,levels of NO produced in infected macrophages,[10],increase
C[C@H]1[C@H](C)CC[C@]2(C(=O)O)CC[C@]3(C)C(=CC[C@@H]4[C@@]5(C)CC[C@H](O)C(C)(C)[C@@H]5CC[C@]43C)[C@H]12 [ursolic acid],IC50 for axenic amastigotes,[11]; L. (L.) amazonensis axenic amastigotes ref 37,2.24 µg/mL
same,IC50 for promastigotes,[12]; L. (L.) amazonensis promastigotes ref 37,14.1 µg/mL
C=C(C)[C@@H]1CC[C@]2(C)CC[C@]3(C)[C@H](CC[C@@H]4[C@@]5(C)CC[C@H](O)C(C)(C)[C@@H]5CC[C@]43C)[C@@H]12 [Lupeol],IC50 for amastigote forms,[11]; L. (L.) amazonensis amastigote forms ref 38,44.1 µg/mL
same,IC50 for promastigotes,[12]; L. (L.) amazonensis promastigotes ref 38,39.06 µg/mL
"C[C@@H]1[C@H](O)[C@@H](C)/C=C/C=C/C=C/C=C/C=C/C=C/C=C/[C@H](O[C@@H]2O[C@H](C)[C@@H](O)[C@H](N)[C@@H]2O)C[C@@H]2O[C@](O)(C[C@@H](O)C[C@@H](O)[C@H](O)CC[C@@H](O)C[C@@H](O)CC(=O)O[C@H]1C)C[C@H](O)[C@H]2C(=O)O [Amphotericin B, reference compound]",CC50 at 72 h,[13],0.32 ± 0.08 µM
same,CC50 at 72 h,[14],0.38 ± 0.06 µM
same,EC50,"[3]; Leishmania amazonensis, 32 °C, MTT",0.23 ± 0.01 µM
same,IC50,"[5]; 26 °C, MTT",0.36 ± 0.03 µM
same,EC50,"[8]; Leishmania amazonensis, J774.A1, infected J774A.1 macrophages, 72 h",0.29 ± 0.04 µM
Meglumine antimoniate [reference compound],EC50,"[3]; 32 °C, MTT",1020 ± 25.7 µM
same,EC50,"[8]; infected J774A.1 macrophages, 72 h",541 ± 13.5 µM
